Values after ≈ are worked out from the molar mass of the structure shown. Read-outs that look alike come from different tables or passages of the source.
Experiments:
[1] = system: M. morganii (1 strain), Ent. cloacae (2 strains) and Ser. marcescens (2 strains); experiment: MIC, two-fold serial agar dilution, group (G-)-II; format: cell-based; settings: read-out: Geometric Mean of MIC
Description: (§1) In the primary evaluation of the compounds of this invention, the Minimum Inhibitory Concentrations (MIC's) of the compounds were determined by the two-fold serial agar dilution method in Mueller-Hinton agar against 32 strains of test organisms in six groups. The sample weights of the test compounds were adjusted according to the purity of each compound, so as to give a more accurate measure of the MIC's.
(G-)II: M. morganii (1 strain), Ent. cloacae (2 strains) and Ser.

[2] = Mouse blood levels after single intramuscular injection; format: in vivo, mice; settings: in vivo, im, 20 mg/kg
Description: The absorption of some of the preferred compounds were determined in mice following a single intramuscular injection of the test compound (dissolved in 0.1M phosphate buffer; pH 7) at a dosage of 20 mg/kg. Blood samples were collected from the orbital sinuses into heparinized capillary tubes and assayed in Nutrient Agar (pH 6.6) using E. coli Ess-22-31 as the test organism. The blood levels at various time intervals, the half-life values (t1/2) and the areas under the curve (AUC) are shown in Table 2.

[3] = system: Cephalothinsensitive E. coli (2 strains), Kl. pneumoniae (1 strain) and Pr. mirabilis (2 strains); experiment: MIC, two-fold serial agar dilution, group (G-)-Ia; format: cell-based; settings: 5 strains, Mueller-Hinton agar, read-out: Geometric Mean of MIC
Description: as §1
(G-)Ia: Cephalothinsensitive E. coli (2 strains), Kl. pneumoniae (1
strain) and Pr. mirabilis (2 strains)

[4] = system: Cephalothinresistant E. coli (3 strains) and Kl. pneumoniae (3 strains); experiment: MIC, two-fold serial agar dilution, group (G-)-Ib; format: cell-based; settings: Escherichia coli, read-out: Geometric Mean of MIC
Description: as §1
(G-)Ib: Cephalothinresistant E. coli (3 strains) and Kl. pneumoniae (3

[5] = system: E. coli Juhl; experiment: Median protective dose in infected mice; format: in vivo; settings: Escherichia coli, im, immediately after intraperitoneal challenge, read-out: PD50
Description: (§2) The median protective dose (PD50) of some of the preferred compounds against various microorganisms was determined in mice by intramuscular administration of the test compound immediately after an intraperitoneal bacterial challenge.

[6] = system: P. aeruginosa A9843; experiment: Median protective dose in infected mice; format: in vivo; settings: Pseudomonas aeruginosa, im, immediately after intraperitoneal challenge, read-out: PD50
Description: as §2

[7] = system: S. aureus Smith; experiment: Median protective dose in infected mice; format: in vivo; settings: Staphylococcus aureus, im, immediately after intraperitoneal challenge, read-out: PD50
Description: as §2

[8] = system: Penicillinsensitive S. aureus (5 strains); experiment: MIC, two-fold serial agar dilution, group (G+)-Ia; format: cell-based; settings: Staphylococcus aureus; (G+)-Ia, 5 strains, Mueller-Hinton agar; read-out: Geometric Mean of MIC
Description: as §1
(G+)Ia: Penicillinsensitive S. aureus (5 strains)

[9] = system: Ps. aeruginosa (6 strains); experiment: MIC, two-fold serial agar dilution, group (G-)-III; format: cell-based; settings: Pseudomonas aeruginosa, read-out: Geometric Mean of MIC
Description: as §1
(G-)III: Ps. aeruginosa (6 strains)

[10] = system: Penicillinresistant S. aureus (5 strains); experiment: MIC, two-fold serial agar dilution, group (G+)-Ib; format: cell-based; settings: Staphylococcus aureus, read-out: Geometric Mean of MIC
Description: as §1
(G+)Ib: Penicillinresistant S. aureus (5 strains)

[11] = system: H. influenzae (7) (ampicillin sensitive); experiment: In vitro activity against fastidious bacteria, two-fold serial agar dilution; format: cell-based; settings: Haemophilus influenzae, GC agar, 7 strains, read-out: Geometric Mean of MIC
Description: (§3) The in vitro activity of some of the preferred compounds against 30 strains of fastidious bacteria was determined by the two-fold serial agar dilution method in Gonococcus agar (GC agar), and the results are shown in Table 3.

[12] = system: N. gonorrhoeae (5); experiment: as above; format: cell-based; settings: Neisseria gonorrhoeae, read-out: Geometric Mean of MIC
Description: as §3

[13] = system: H. influenzae (3) (ampicillin resistant); experiment: as above; format: cell-based; settings: Haemophilus influenzae, read-out: Geometric Mean of MIC
Description: as §3

[14] = system: S. pyogenes (5 strains); experiment: as above; format: cell-based; settings: Streptococcus pyogenes; GC agar; read-out: Geometric Mean of MIC
Description: as §3

[15] = system: N. meningitidis (5); experiment: as above; format: cell-based; settings: Neisseria meningitidis, read-out: Geometric Mean of MIC
Description: as §3

[16] = system: S. pneumoniae (5); experiment: as above; format: cell-based; settings: Streptococcus pneumoniae; GC agar; read-out: Geometric Mean of MIC
Description: as §3

[17] = (G-)-II, 5 strains, Mueller-Hinton agar
[18] = (G-)-III, 6 strains, Mueller-Hinton agar
[19] = (G+)-Ib, 5 strains, Mueller-Hinton agar

SMILES	MIC [1, 17]	AUC [2]	concentration at 10 min [2]	concentration at 20 min [2]	concentration at 0.5 h [2]	concentration at 40 min [2]	concentration at 50 min [2]	concentration at 1 h [2]	concentration at 1.5 h [2]	concentration at 2 h [2]	half-life [2]	MIC [3]	MIC [4]	ED50 [5]	ED50 [6]	ED50 [7]	MIC [8]	MIC [9, 18]	MIC [10, 19]	MIC [9]	further results
CO/N=C(\C(=O)NC1C(=O)N2C(C(=O)[O-])=C(C[n+]3ccc4sc(NC(C)=O)nc4c3)CS[C@H]12)c1csc(N)n1 (some centres unmarked) [Ip, 7-[(Z)-2-(2-Aminothiazol-4-yl)-2-methoxyiminoacetamido]-3-(2-acetylamino-5-thiazolo[4,5-c]pyridinio)methyl-3-cephem-4-carboxylate]	0.68 µg/mL (≈ 1.16 µM)	16000 ng·h/mL	24000 ng/mL	18000 ng/mL	13000 ng/mL	10000 ng/mL	6800 ng/mL	5500 ng/mL	2500 ng/mL	1400 ng/mL	27 min	0.037 µg/mL (≈ 0.0629 µM)	0.4 µg/mL (≈ 0.68 µM)	0.29 mg/kg	16 mg/kg	1 mg/kg	0.34 µg/mL (≈ 0.578 µM)	11 µg/mL (≈ 18.7 µM)	0.8 µg/mL (≈ 1.36 µM)	–	–
CO/N=C(\C(=O)NC1C(=O)N2C(C(=O)[O-])=C(C[n+]3ccc4sc(NC(=O)OC)nc4c3)CS[C@H]12)c1csc(N)n1 (some centres unmarked) [Is, 7-[(Z)-2-(2-Aminothiazol-4-yl)-2-methoxyiminoacetamido]-3-(2-methoxycarbonylamino-5-thiazolo[4,5-c]pyridinio)methyl-3-cephem-4-carboxylate]	–	13000 ng·h/mL	19000 ng/mL	18000 ng/mL	14000 ng/mL	6700 ng/mL	4600 ng/mL	4600 ng/mL	2200 ng/mL	1100 ng/mL	26 min	0.038 µg/mL (≈ 0.0628 µM)	0.69 µg/mL (≈ 1.14 µM)	0.018 mg/kg	10 mg/kg	1.2 mg/kg	0.46 µg/mL (≈ 0.761 µM)	14 µg/mL (≈ 23.2 µM)	0.8 µg/mL (≈ 1.32 µM)	–	MIC [1]: 0.6 µg/mL (≈ 0.992 µM)
CO/N=C(\C(=O)NC1C(=O)N2C(C(=O)[O-])=C(C[n+]3ccc4sc(NC(=O)N5CCCC5)nc4c3)CS[C@H]12)c1csc(N)n1 (some centres unmarked) [It, 7-[(Z)-2-(2-Aminothiazol-4-yl)-2-methoxyiminoacetamido]-3-[2-(pyrrolidin-1-ylcarbonylamino)-5-thiazolo[4,5-c]pyridinio]methyl-3-cephem-4-carboxylate]	2.8 µg/mL (≈ 4.35 µM)	13000 ng·h/mL	19000 ng/mL	18000 ng/mL	11000 ng/mL	7800 ng/mL	6600 ng/mL	5400 ng/mL	2100 ng/mL	890 ng/mL	24 min	0.3 µg/mL (≈ 0.466 µM)	0.92 µg/mL (≈ 1.43 µM)	0.2 mg/kg	> 25 mg/kg	1.9 mg/kg	0.53 µg/mL (≈ 0.823 µM)	34 µg/mL (≈ 52.8 µM)	–	–	MIC [10]: 1.6 µg/mL (≈ 2.49 µM)
Nc1nc(/C(=N/OC2(C(=O)O)CCC2)C(=O)NC2C(=O)N3C(C(=O)[O-])=C(C[n+]4ccc5scnc5c4)CS[C@H]23)cs1 (some centres unmarked) [Ie, 7-[(Z)-2-(2-Aminothiazol-4-yl)-2-(1-carboxycyclobut-1-oxyimino)-acetamido]-3-{(5-thiazolo[4,5-c]pyridinio)methyl}-3-cephem-4-carboxylate]	0.34 µg/mL (≈ 0.552 µM)	7900 ng·h/mL	13000 ng/mL	12000 ng/mL	7500 ng/mL	4300 ng/mL	3000 ng/mL	2600 ng/mL	510 ng/mL	150 ng/mL	16 min	0.023 µg/mL (≈ 0.0374 µM)	0.5 µg/mL (≈ 0.812 µM)	0.08 mg/kg	1.8 mg/kg	3.1 mg/kg	2.2 µg/mL (≈ 3.57 µM)	–	4.4 µg/mL (≈ 7.15 µM)	1.3 µg/mL (≈ 2.11 µM)	MIC [11]: 0.1 µg/mL (≈ 0.162 µM); MIC [12]: 0.1 µg/mL (≈ 0.162 µM); MIC [13]: 0.1 µg/mL (≈ 0.162 µM); MIC [14]: 0.2 µg/mL (≈ 0.325 µM); MIC [15]: 0.1 µg/mL (≈ 0.162 µM); MIC [16]: 0.2 µg/mL (≈ 0.325 µM)
Cc1nc2c[n+](CC3=C(C(=O)[O-])N4C(=O)C(NC(=O)/C(=N\OC5(C(=O)O)CCC5)c5csc(N)n5)[C@H]4SC3)ccc2s1 (some centres unmarked) [Im, 7-[(Z)-2-(2-Aminothiazol-4-yl)-2-(1-carboxycyclobut-1-oxyimino)-acetamido]-3-(2-methyl-5-thiazolo[4,5-c]pyridinio)methyl-3-cephem-4-carboxylate]	0.25 µg/mL (≈ 0.397 µM)	7100 ng·h/mL	13000 ng/mL	10000 ng/mL	6900 ng/mL	4800 ng/mL	2700 ng/mL	2000 ng/mL	480 ng/mL	< 200 ng/mL	16 min	0.027 µg/mL (≈ 0.0429 µM)	0.56 µg/mL (≈ 0.889 µM)	0.1 mg/kg	9 mg/kg	9.4 mg/kg	3.4 µg/mL (≈ 5.4 µM)	–	8.8 µg/mL (≈ 14 µM)	2.5 µg/mL (≈ 3.97 µM)	–

— patent publication US4500526A, “Cephalosporin derivatives” (Bristol-Myers Company, priority 1983, dated 1985)
